# Results reported in patent US20240335462A1, “SULFUR/PHOSPHORUS-CONTAINING ARYL COMPOUND AND APPLICATION THEREOF” (MEDSHINE DISCOVERY INC., priority 2021, published 2024).
# Assays:
# [1] = tested on: JH2 pseudokinase domain of TYK2; details: background statement; cited from earlier work
# [2] = tested on: TYK2 signaling pathway (IFN-α/pSTAT1); experiment: IFN-α-induced STAT1 phosphorylation in mouse whole blood; format: cell-based; details: CD3+ cells
# Method: The purpose of this experiment was to detect the inhibitory effect of the compound on the JAK-STAT signaling pathway activated by IFN-α in mouse whole blood. Fresh mouse whole blood was collected and placed in a 96-well plate. The test compound was added and incubated for 1 hour, followed by stimulation with IFN-α. The corresponding STAT1 phosphorylation level in the CD3^+ cell population was analyzed using flow cytometer by means of surface antibody staining and intracellular phosphorylated antibody staining. The IFN-α-induced STAT1 phosphorylation in mouse whole blood is dependent on TYK2 activity. By detecting the inhibitory activity of the compound on downstream […] phosphorylation, the half maximal inhibitory concentration (IC50) of the compound on TYK2 signaling pathway activity can be determined.
# • a) The compound was prepared into a 10 mM solution with dimethyl sulfoxide (DMSO), and diluted in DMSO to a solution with various concentrations, 500 times the final concentration. • b) 5 μL of the diluted compound was transferred to 120 μL of phosphate buffered saline (PBS) containing 0.1% bovine serum albumin (BSA). • c) Positive and negative control groups were set up, with both finally containing 0.2% DMSO.
# • a) 67.5 μL of mouse whole blood was added to each well of a 96-well cell culture plate. • b) 3.5 μL of the diluted compound was added thereto and mixed thoroughly. • c) The plate was incubated in a 37° C. incubator for 60 minutes. • d) Mouse interferon recombinant protein was diluted 125-fold in PBS containing 0.1% BSA, and anti-mouse CD3 antibody was diluted 5-fold in PBS containing 0.1% BSA. 5 μL of diluted anti-mouse CD3 antibody and 4 μL of diluted mouse interferon recombinant protein were added to each well. • e) The plate was incubated in a 37° C. incubator for 30 minutes. • f) All cells were transferred to a 96-well deep well plate, and 1 mL of 37° C. pre-warmed 1× lysis/fixation buffer was added thereto. • g) The cells were incubated in the dark at 37° C. for 10 minutes. • h) After centrifugation at 600 g for 5 minutes, the supernatant was discarded, and the cells were washed twice with 1 mL of PBS by centrifugation. • i) 0.4 mL per well of permeabilization buffer was added to the cell pellet and mixed thoroughly. The cells were incubated in the dark at 4° C. for 30 minutes. • j) After centrifugation at 600 g for 5 minutes, the supernatant was discarded, and the cells were washed twice with 1 mL of flow cytometry staining buffer (PBS+0.2% BSA+1 mM EDTA) by centrifugation. • k) Anti-STAT1 antibody was diluted 65-fold in flow cytometry staining buffer, and added to cell-containing wells at 100 μL per well and mixed thoroughly. • l) The cells were incubated at room temperature for 40 minutes. • m) 1 mL per well of flow cytometry staining buffer was added, and the cells were washed twice by centrifugation at 600 g for 5 minutes. • n) The supernatant was discarded, and the cell pellet was resuspended in 300 μL of flow cytometry staining buffer. • o) The samples were loaded for analysis using the Beckman CytoFlex flow cytometer.
# Data were analyzed using FlowJo software. Curve fitting was performed and the IC50 was calculated using GraphPad Prism 8 software.
# Ba/F3-TEL-TYK2 cells = experiment: Proliferation of Ba/F3-TEL-TYK2 cells (CellTiter-Glo); format: cell-based; details: 72 hours, read-out: Half maximal inhibitory concentration IC50 for cells Ba/F3-TEL-TYK2
# Text: (§1) Adenosine triphosphate (ATP) serves as a universal energy carrier in various life processes, representing the smallest unit of energy storage and transfer. The CellTiter-Glo™ Luminescent Cell Viability Assay Kit utilizes luciferase as a detection agent. During the luminescent process, luciferase requires the participation of ATP. By adding CellTiter-Glo™ reagent to the cell culture medium and measuring the luminescence, the light signal was directly proportional to the amount of ATP in the system, and ATP was positively correlated with the number of viable cells. Therefore, cell proliferation can be detected by measuring ATP content using the CellTiter-Glo kit. In this test, the cell lines used were Ba/F3-FL-TYK2-E957D and Ba/F3-TEL-TYK2. Ba/F3-FL-TYK2-E957D cells can stably express the exogenously introduced human TYK2-E957D gene, and the TYK2-E957D gene sequence contains both JH1 and JH2 domains. On the other hand, Ba/F3-TEL-TYK2 cells can stably express the exogenously introduced human TEL-TYK2 gene, and the TEL-TYK2 gene sequence contains only the JH1 domain of TYK2.
# (§2) The cell lines were cultured in an incubator at 37° C. with 5% CO2. Regular passaging was performed, and cells in the logarithmic growth phase were selected for plating.
# (§3) • a) The test compounds were prepared into a 10 mM solution with DMSO, and then diluted to 0.3 or 1 mM with DMSO. • b) Preparation of 1000× compound storage plate (tube): The compounds were 3-fold serially diluted from the highest concentration to the lowest concentration, creating 9 different concentrations. • c) Preparation of 20× compound working solution: 49 μL of cell culture medium was added to a flat-bottomed 96-well transparent drug plate. From the 1000× compound storage plate, 1 μL of the compound was pipetted into the cell culture medium in the 96-well transparent drug plate. In the solvent control, 1 μL of DMSO was added. After the compound or DMSO was added, the mixture was homogenized using a multi-channel pipette.
# (§4) • a) Cells were stained with trypan blue and viable cells were counted to ensure a cell viability of 90% or more. • b) 95 μL of cell suspension (2000 cells/well) was added to each well of the compound assay cell plate, and cell-free culture medium containing 0.1% DMSO was added to the Min control wells. • c) Administration in the compound assay cell plate: 5 μL of 20× compound working solution was added to the cell culture plate. 5 μL of DMSO-cell culture medium mixture was added to the Max control wells. The final concentration of DMSO was 0.1%. • d) The culture plate was then incubated in an incubator at 37° C. with 5% CO2 for 72 hours.
# (§5) The following steps were conducted in accordance with the instructions of the Promega CellTiter-Glo Luminescent Cell Viability Assay Kit (Promega-G7573). • a) CellTiter-Glo buffer was thawed and brought to room temperature. • b) CellTiter-Glo substrate was also brought to room temperature. • c) CellTiter-Glo buffer was added to a bottle of CellTiter-Glo substrate to dissolve the substrate, thereby preparing CellTiter-Glo working solution. • d) The mixture was slowly vortexed and shaken to be fully dissolved. • e) The cell culture plate was removed and allowed to equilibrate to room temperature for 10 minutes. • f) 50 μL (equal to half the volume of cell culture medium in each well) of CellTiter-Glo working solution was added to each well. • g) The culture plate was shaken on an orbital shaker for 2 minutes to induce cell lysis. • h) The plate was then left at room temperature for 10 minutes to stabilize the luminescent signal. • i) The luminescent signal was detected using a SpectraMax Paradigm plate reader.
# (§6) Data analysis was conducted using GraphPad Prism 5.0 software. Nonlinear S-curve regression was employed to fit the data and generate dose-response curves. From these curves, the IC50 values were calculated.
# [3] = target: Ba/F3-FL-TYK2-E957D cells (Homo sapiens, UniProt P29597, E957D, cells depend on it); experiment: Proliferation of Ba/F3-FL-TYK2-E957D cells (CellTiter-Glo); format: cell-based, mouse; details: 72 hours, read-out: Half maximal inhibitory concentration IC50 for cells Ba/F3-FL-TYK2-E957D
# Text: as §1, §2, §3, §4, §5, §6
# Ba/F3-FL-TYK2-E957D cells, sequence (P29597 whole entry E957D): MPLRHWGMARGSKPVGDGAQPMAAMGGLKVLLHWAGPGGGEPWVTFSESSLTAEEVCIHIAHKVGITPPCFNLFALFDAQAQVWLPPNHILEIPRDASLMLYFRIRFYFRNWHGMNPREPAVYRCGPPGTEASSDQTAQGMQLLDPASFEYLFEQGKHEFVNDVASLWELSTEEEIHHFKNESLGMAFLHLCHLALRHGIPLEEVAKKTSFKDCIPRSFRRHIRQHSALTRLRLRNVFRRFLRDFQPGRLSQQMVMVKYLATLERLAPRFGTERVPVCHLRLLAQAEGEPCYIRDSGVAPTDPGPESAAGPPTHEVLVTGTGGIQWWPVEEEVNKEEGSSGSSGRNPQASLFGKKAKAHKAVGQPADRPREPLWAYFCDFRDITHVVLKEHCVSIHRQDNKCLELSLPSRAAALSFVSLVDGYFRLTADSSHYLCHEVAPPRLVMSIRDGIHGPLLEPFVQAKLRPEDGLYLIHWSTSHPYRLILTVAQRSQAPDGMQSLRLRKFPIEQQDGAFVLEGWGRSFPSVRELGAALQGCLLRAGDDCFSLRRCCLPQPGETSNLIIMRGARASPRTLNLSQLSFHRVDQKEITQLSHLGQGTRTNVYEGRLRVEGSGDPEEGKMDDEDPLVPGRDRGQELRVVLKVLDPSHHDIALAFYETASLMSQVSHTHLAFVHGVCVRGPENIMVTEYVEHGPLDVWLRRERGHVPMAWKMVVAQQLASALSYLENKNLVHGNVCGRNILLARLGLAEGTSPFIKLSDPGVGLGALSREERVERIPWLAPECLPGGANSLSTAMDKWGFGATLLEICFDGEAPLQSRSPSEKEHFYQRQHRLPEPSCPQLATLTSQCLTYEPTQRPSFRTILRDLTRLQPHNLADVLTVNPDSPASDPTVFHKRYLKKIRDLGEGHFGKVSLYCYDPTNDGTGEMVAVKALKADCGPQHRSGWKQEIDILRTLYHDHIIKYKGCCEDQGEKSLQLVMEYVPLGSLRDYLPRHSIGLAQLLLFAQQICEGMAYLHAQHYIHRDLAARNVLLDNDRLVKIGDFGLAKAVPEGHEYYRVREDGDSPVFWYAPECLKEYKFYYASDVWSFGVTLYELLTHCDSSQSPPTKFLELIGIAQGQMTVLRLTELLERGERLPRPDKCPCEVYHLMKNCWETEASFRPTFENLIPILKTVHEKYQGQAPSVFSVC
IC50 [2] [nM],IC50 (Ba/F3-TEL-TYK2 cells) [nM],GI50 [3] [nM],Structure (SMILES),kinase selectivity [1] [fold]
,,,[2H]C([2H])([2H])NC(=O)c1nnc(NC(=O)C2CC2)cc1Nc1cccc(-c2ncn(C)n2)c1OC [BMS-986165],> 1000
93.2,> 10000,0.1,COc1c(Nc2cc(NC(=O)C3CC3)ncc2C(N)=O)cccc1-c1ccc(S(=O)(=O)C(C)C)cn1 [Trifluoroacetate of WX-034],
316,> 10000,0.1,COc1c(Nc2cc(NC(=O)C3CC3)ncc2C(N)=O)cccc1-c1ncc(S(=O)(=O)C(C)C)cn1 [WX-033],
